The values below come from PMC8708455, “Trans-ε-Viniferin Encapsulation in Multi-Lamellar Liposomes: Consequences on Pharmacokinetic Parameters, Biodistribution and Glucuronide Formation in Rats” (Nutrients, 2021).

“And” between values parts separate entries of the source, which are not always exact repeats. Equal entries are not always repeated. Where two headings read alike, the source gives them in different places.

Data set [1] can be described thus: Pharmacokinetic study: plasma kinetics after oral administration of free or encapsulated εVin. It counts as in vivo, rats. The following applies: for occurrence of metabolites after oral administration: rats, both administration forms, data not shown; for k el: read-out: Lambda z (converted); for MRT: read-out: MRT (mean residence time) (converted); for half-life: read-out: T½; for AUC0-t: 0-4 h. The protocol:
(§1) Experiments were conducted in accordance with Directive 2010/63/EU [51] and approved by the Bordeaux University Institutional Ethics Committee for Animal Research (IEC-AR CEEA 50, MESR approval A18380). Male Wistar rats (Janvier-LABS, Saint Berthevin, France) were maintained in controlled conditions: 12 h light/12 h dark cycle, humidity 50–60% and an ambient temperature of 24 ± 1 °C (animal facility agreement number: B33-063-917). Free access to food and water was allowed up to 16 h before experiments started. Rats were randomly divided into two groups. Group A (n = 5, average weight = 307.8 ± 7.7 g) received εVin dissolved in propylene glycol (5.25 mg/mL), while group B (n = 6, average weight = 308 ± 10.7 g) received the same dose of εVin but encapsulated in MLLs and suspended in ultra-pure water. Both solutions were administrated by oral gavage and precisely measured to reach a dose of 20 mg/kg bw of εVin. Blood was collected through the tail vein, making a slanting incision during the first collection. Rats were slightly anesthetized by isoflurane before every blood sample collection (600 µL) at the following time points: 20, 40, 60, 100, 140, 180 and 210 min after gavage. They were sacrificed at 240 min by a high dose of isoflurane and rapid exsanguination with saline solution injected in the right ventricular cardiac cavity with a peristaltic pump (10 mL/min). All blood samples were collected in heparinized tubes and centrifuged (10,000× g, 10 min) before sampling plasma. The liver, kidneys and four white adipose tissues (epididymal, retroperitoneal, mesenteric and subcutaneous) were removed, weighed and immediately immersed in liquid nitrogen. All blood and tissues samples were kept at −80 °C until analysis.
(§2) Extractions were performed as previously described with some modifications to improve quantification. For plasma extraction, 360 µL of methanol (4 °C) were added to an aliquot of 120 µL of plasma. The sample was vortexed during three minutes before centrifugation (30 min, 12,000× g, 4 °C). The supernatant (380 µL) was removed and evaporated using a SpeedVac concentrator (Labconco CentriVap, Thermo Fisher Scientific, Waltham, MA, USA). Residue was kept in −80 °C before analysis. For tissues extraction, tissues (about 0.5 g) were first cut with scalpels before being mixed with 4 mL of methanol:water (80:20, v:v). Samples were homogenized with an Ultra-Turrax homogenizer (IKA, Staufen, Deutschland) before being intensely vortexed. Then, samples were centrifuged 20 min at 10,000× g and 4 °C before sampling 3 mL of supernatant. All supernatants were evaporated using a SpeedVac concentrator and kept at −80 °C. Residues were reconstituted in 60 µL and 250 µL of methanol:water (50:50, v:v) or plasma and tissue, respectively. They were vortexed intensely and centrifuged at 12,000× g during 30 min at 4 °C before being injected the supernatant in LC-HRMS.
(§3) The quantification of εVin and the total of glucuronides (εVG) in plasma and tissues was performed as previously described with some modifications concerning the mass parameters. The U-HPLC separation was carried out with a Vanquish Flex system (Thermo Fisher Scientific, Les Ulis, France) consisting in a binary pump, an autosampler and a heated column compartment. The liquid chromatography separation was performed as previously detailed using C18 column (BEH C18 2.1 mm × 100 mm, 1.7 µm particle size, Waters, Guyancourt, France). The flow rate was set as 450 µL/min. The injection volume was 5 µL and the eluents were 0.1% formic acid in water for A and 0.1% formic acid in acetonitrile for B. The eluent B varied as follows: 0 min, 25%; 0.5 min, 25%; 3.6 min, 50%; 3.9 min, 50%; 4 min, 100%; 5.7 min, 100%; 5.8 min, 25%; 7 min, 25%. The column and sample temperature were 30 °C and 20 °C, respectively. The Exactive benchtrop Orbitrap mass spectrometer equipped with a HESI probe (both from Thermo Fisher Scientific, Bremen, Germany) was used. […]

Details of data set [2]: method as in PMID 27175336. The following applies: rats, oral 70 mg/kg bw, after hydrolysis with glucuronidase; cited from earlier work.
The nature of data set [3]: Literature pharmacokinetics of εVin after oral administration in mice (Kim et al.). Format: in vivo. The note with it: oral 40 mg/kg bw (ref 31) versus 20 mg/kg bw in this study.
Details of data set [4]: method as in PMID 30400351. The following applies: rats, intraperitoneal injection, cited from earlier work; for Cmax: metabolites expressed as equivalent of the native form.
Data set [5] in a line: Quantification in plasma, liver, kidneys and white adipose tissues 4 h after oral administration. Format: in vivo. The note with it: rats, 4 h after oral 20 mg/kg bw εVin. The protocol: as §1, §2, §3
On the set-up of data set [6]: method as in PMID 27902942. The following applies: mice, oral 40 mg/kg bw; cited from earlier work.
Where [7] appears, read: male, Wistar, rat, plasma, po, 20 mg/kg, rat plasma, oral 20 mg/kg bw εVin, encapsulated form (MLLs).
The mark [8] stands for this setting: male, Wistar, rat, plasma, po, 20 mg/kg, rat plasma, oral 20 mg/kg bw εVin, free form.
Setting [9] is: rat plasma, oral 20 mg/kg bw εVin, encapsulated form (MLLs).
[10] abbreviates: rat plasma, oral 20 mg/kg bw εVin, free form.
Where [11] appears, read: rat plasma, oral 20 mg/kg bw εVin, free form, 20 mg/kg.

For `O=C(O)[C@H]1O[C@@H](Oc2cc(/C=C/c3ccc(O)cc3)c3c(c2)O[C@H](c2ccc(O)cc2)[C@H]3c2cc(O)cc(O)c2)[C@H](O)[C@@H](O)[C@@H]1O` [V2G], the “occurrence of metabolites after oral administration” value (“occurrence of metabolites” for short) in data set [1] is on record as “largely in majority”.
In the case of `Oc1ccc([C@H]2Oc3ccc(/C=C/c4cc(O)cc(O)c4)cc3[C@@H]2c2cc(O)cc(O)c2)cc1` [δ-viniferin], the “concentration of glucuronide metabolites relative to the native form” value in data set [2] is listed as “up to 7 fold”.
As for `O=C(O)C1OC(Oc2ccc(C=Cc3cc(O)cc4c3C(c3cc(O)cc(O)c3)C(c3ccc(O)cc3)O4)cc2)C(O)C(O)C1O` (stereo not drawn) [V4G], in data set [1], the “occurrence of metabolites” value is listed as “traces”.
Regarding `Oc1ccc(/C=C/c2cc(O)cc3c2[C@@H](c2cc(O)cc(O)c2)[C@H](c2ccc(O)cc2)O3)cc1` [εVin, Trans-ε-viniferin], the “AUC0-∞ of the literature study relative to the values of this study” value in data set [3] came out at 3.6 times. Also, the Cmax (commonly the highest concentration seen after dosing) in data set [4] was 3090 ng/mL. In data set [5] (free form), the concentration in kidneys is recorded as ≤ 10 pmol/g of tissue, the concentration in liver is recorded as ≤ 10 pmol/g of tissue, the “concentration in mesenteric adipose tissue” value is recorded as 92 ± 84 pmol/g of tissue and the “concentration in subcutaneous adipose tissue” value is reported as 23 ± 12 pmol/g of tissue. The “concentration in the three other adipose depots (epididymal, retroperitoneal, subcutaneous)” value in data set [5] (free form) is “around 20 pmol/g of tissue”. In data set [1] (setting [7]), the peak level (Cmax) was 11.7 ± 7.3 nM; the k el was 0.000137 s⁻¹; the mean residence time MRT – broadly, a mean duration of stay, worked out from the concentration-time curve – is 3.27 h; the half-life stood at 1.91 ± 1.34 h. For the same compound, the time of peak concentration (Tmax) (usually the time from dosing to the highest level) in data set [1] (male, Wistar, rat, plasma, po, 20 mg/kg, rat plasma, oral 20 mg/kg bw εVin, encapsulated form (MLLs), read-out: Tmax (converted)) is 0.333 h. Besides, in data set [1] (setting [8]), the Cmax came to 15 ± 11 nM, the k el was 0.000345 s⁻¹, the MRT was 2.12 h and the half-life came to 0.917 ± 0.565 h. In data set [1] (male, Wistar, rat, plasma, po, 20 mg/kg, rat plasma, oral 20 mg/kg bw εVin, free form, read-out: Tmax (converted)), the Tmax was 1 h. Further, in data set [1] (setting [9]), the “AUC0–∞” value is given as 1660.1 ± 1313.1 pmol/mL/min and the AUC0-t turned out to be 1009.8 ± 328.3 pmol/mL/min. Further, in data set [1] (setting [10]), the “AUC0–∞” value was 1919.7 ± 955.2 pmol/mL/min and the AUC0-t turned out to be 1689.1 ± 682.0 pmol/mL/min. In data set [1] (setting [11]), this compound had a Cmax of 15.3 ± 10.5 nM. In addition, in data set [6], the bioavailability (commonly the share of a dose that reaches the circulation, judged against a reference dose that is usually intravenous) was 0.77% and the “maximal concentration (Cmax)” value is recorded as 42 ng/mL.
On to `O=C(O)C1OC(Oc2ccc(C3Oc4cc(O)cc(C=Cc5ccc(O)cc5)c4C3c3cc(O)cc(O)c3)cc2)C(O)C(O)C1O` (stereo not drawn) [V1G], for which the “occurrence of metabolites” value in data set [1] is “traces”.
For Trans-ε-viniferin-glucuronide [εVG], in data set [4], the Cmax is 5160 ng/mL and the Tmax is on record as 1 h. In data set [5] (encapsulated form), the concentration in kidneys is 114 ± 12 pmol/g of tissue, the concentration in liver is 1206 ± 304 pmol/g of tissue, the “concentration in mesenteric adipose tissue” value is 213 ± 81 pmol/g of tissue and the “concentration in plasma at 4 h” value stood at 700 ± 175 nM. Besides, in data set [5] (free form), the concentration in kidneys is 76 ± 39 pmol/g of tissue, the “concentration in kidneys relative to the native molecule” value is on record as 14 times, the concentration in liver is on record as 604 ± 320 pmol/g of tissue and the “concentration in liver relative to the native molecule” value is on record as 60 times. In addition, in data set [5] (free form), the “concentration in mesenteric adipose tissue” value is 108 ± 75 pmol/g of tissue, the “concentration in plasma at 4 h” value was determined as 317 ± 186 nM and the “concentration in subcutaneous adipose tissue” value is 105 ± 83 pmol/g of tissue. The “increase of T1/2 by the encapsulation procedure” value in data set [1] (rat plasma, encapsulated versus free form, p < 0.05) is roughly 3 times. Also, in data set [1] (setting [9]), the “AUC0–∞” value is 432,315.4 ± 106,406.4 pmol/mL/min, the highest level (Cmax) was 1750 ± 876 nM, the Lambda z was 0.0074 ± 0.0036 * min^−1 and the Tmax was 1.67 h. Also, the AUC0-t in data set [1] (setting [9]) is 307,086.4 ± 316,383.9 pmol/mL/min. In data set [1] (rat plasma, oral 20 mg/kg bw εVin, encapsulated form (MLLs), 20 mg/kg), this compound gave a T½ of 1.98 ± 1.08 h. Moreover, in data set [1] (setting [10]), the “AUC0–∞” value was 264,191.0 ± 123,786.4 pmol/mL/min, the maximum concentration (Cmax) was found to be 1670 ± 1100 nM, the Lambda z was 0.0198 ± 0.0056 min⁻¹ and the “MRT (mean residence time)” value came out at 2.062 ± 0.2 h. In addition, in data set [1] (setting [10]), the time to peak (Tmax) came out at 1.67 h and the AUC0-t was 245,827.3 ± 114,219.8 pmol/mL/min. In addition, the T½ in data set [1] (setting [11]) was 0.633 ± 0.183 h and 0.637 ± 0.187 h. Besides, in data set [1] (rat plasma, oral 20 mg/kg bw εVin, free form, listed as glucuronide forms, 20 mg/kg), the “maximal plasma concentration of glucuronides relative to the aglycone (native) form” value was “more than 100 times”. In addition, the “maximal plasma concentration of glucuronides relative to the aglycone (native) form” value in data set [1] (rat plasma, oral 20 mg/kg bw εVin, free form, listed as total glucuronides, 20 mg/kg) was found to be 108 times.
